Experimental data as given in EP0438856A2, “Use of melatonin to protect the skin against the influence of UV-rays” (SHISEIDO COMPANY LIMITED, priority 1989, dated 1991).

Assays:
[1] = system: Fibroblasts derived from a human being; assay: Effect on cell damage caused by UV-rays irradiation (colony formation); type: cell-based; settings: 100 mM melatonin in phosphate buffer, vs system without melatonin, p < 0.01, Fig. 1
Protocol: Fibroblasts derived from a human being were seeded in a laboratory dish having a diameter of 6 cm, at 400 cells/laboratory dish, and were cultured in Eagle's MEM medium containing 10% fetal calf serum in an incubator at 5% CO₂ , at 37°C for 24 hours. After the medium was exchanged with a phosphate buffer containing 100 mM of melatonin (SIGMA Co.), it was irradiated by UVB (Toshiba FL-SE 20W) at 50 mJ/cm² or 100 mJ/cm², followed by a further culturing for 6 days. The culture was fixed with a 10% neutral formalin, stained with a 30-fold Gimza solution, and the colonies per laboratory dish were counted. The colonies of the irradiated group were divided by the colonies of the non-irradiated group, to measure the colony formation ratio. As a Control, a phosphate buffer containing no melatonin was added. In Fig. 1, (a) is the system containing no melatonin and (b) is the system containing 100 mM of melatonin. […] The risk ratio p becomes statistically significant at p < 0.05. Accordingly, it can be seen that melatonin has a protective effect against cell damage caused by UV-rays irradiation.

tumors = settings: cited from earlier work
hairless mice = type: in vivo, albino hairless mice
Protocol: Male albino hairless mice 8 weeks old (strain derived from Skh-HR-1, weight 25 - 35 g) were used, and one group consisted of 12 to 14 mice.
Melatonin (SIGMA Co.) was used as a suspension in 20% ethanol containing physiological saline, and administered by an intraperitoneal injection of 0.1 ml in doses at 3 levels of 0 mg, 1 mg, and 10 mg per day.
A Toshiba FL20-SE was mounted in a cage for irradiation, and irradiation was carried out at an irradiation intensity of 0.94 mW/cm², for 8 minutes per day, three times per week on alternate days for weeks. The irradiation was carried out 57 times, and the total irradiation dose was 25.7 J/cm². The administration of the sample was commenced simultaneously with the UV rays irradiation, and after the completion of the UV rays irradiation, the sample was administered continuously for an additional 10 weeks.
The size of the tumor generated was measured with slide calipers.
A t-examination was practiced for the number of tumors with sizes of 5 mm or more per one individual, and the number of tumors generated with sizes of 5 mm or more is shown in Fig. 2.

COc1ccc2[nH]cc(CCNC(C)=O)c2c1 [melatonin, N-acetyl-5-methoxytryptamine]
colony formation ratio ([1]; UVB 50 mJ/cm²): significantly higher colony formation ratio
colony formation ratio ([1]; UVB 100 mJ/cm²): significantly higher colony formation ratio
proliferation of tumors (tumors; experimental leukemia, sarcoma, mammary tumors (literature reports)): suppressing of a proliferation of tumors
course of tumors (tumors; mammary tumors (Hamilton, 1969) or lung cancer (Lapin and Ebels, 1976)): tumors were worsened
protective effect against skin cancer (hairless mice; group administered with 10 mg of melatonin per day, intraperitoneal): a protective effect against skin cancer was seen
generation and proliferation of tumors (number of tumors generated with sizes of 5 mm or more per one mouse) (hairless mice; melatonin administered group (1 mg or 10 mg per day, intraperitoneal), UV irradiated, p < 0.05 on 23 days and 26 days and thereafter, Fig. 2): significantly suppressed
